Reference: patent US9198918B2, “Benzoxazepin PI3K inhibitor compounds and methods of use” (Genentech, Inc., priority 2009, dated 2015)

Key:
[1] = tested on: IGROV1; assay: CellTiter-Glo cell proliferation assay, IGROV1; format: cell-based; conditions: Homo sapiens, IGROV-1, Ovarian, mutation status PI3K
Experimental: (§1) Efficacy of Formula I compounds was measured by a cell proliferation assay employing the following protocol (Promega Corp. Technical Bulletin TB288; Mendoza et al (2002) Cancer Res. 62:5485-5488):
(§2) 1. An aliquot of 100 μl of cell culture containing about 104 cells (PC3, Detroit562, or MDAMB361.1) in medium was deposited in each well of a 384-well, opaque-walled plate.
(§3) 2. Control wells were prepared containing medium and without cells.
(§4) 3. The compound was added to the experimental wells and incubated for 3-5 days.
(§5) 4. The plates were equilibrated to room temperature for approximately 30 minutes.
(§6) 5. A volume of CellTiter-Glo Reagent equal to the volume of cell culture medium present in each well was added.
6. […]
(§7) 7. The plate was incubated at room temperature for 10 minutes to stabilize the luminescence signal.
(§8) 8. Luminescence was recorded and reported in graphs as RLU=relative luminescence units.
(§9) Alternatively, cells were seeded at optimal density in a 96 well plate and incubated for 4 days in the presence of test compound. Alamar Blue™ was subsequently added to the assay medium, and cells were incubated for 6 hr before reading at 544 nm excitation, 590 nm emission. EC50 values were calculated using a sigmoidal dose response curve fit. […]
(§10) The anti-proliferative effects of Formula I exemplary compounds were measured by the CellTiter-Glo® Assay against various tumor cell lines, including the following: […]

[2] = tested on: CAL120; assay: CellTiter-Glo cell proliferation assay, CAL120; format: cell-based; conditions: Homo sapiens, CAL-120, Breast, mutation status WT
Experimental: as §1, §2, §3, §4, §5, §6
6. […]
as §7, §8, §9, §10

[3] = tested on: EFM19-2A; assay: CellTiter-Glo cell proliferation assay, EFM19-2A; format: cell-based; conditions: EFM-192A, Breast, mutation status WT
Experimental: as §1, §2, §3, §4, §5, §6
6. […]
as §7, §8, §9, §10

[4] = tested on: MFM223; assay: CellTiter-Glo cell proliferation assay, MFM223; format: cell-based; conditions: Homo sapiens, MFM-223, Breast, mutation status PI3K
Experimental: as §1, §2, §3, §4, §5, §6
(§11) 6. The contents were mixed for 2 minutes on an orbital shaker to induce cell lysis.
as §7, §8
(§12) Alternatively, cells were seeded at optimal density in a 96 well plate and incubated for 4 days in the presence of test compound. Alamar Blue™ was subsequently added to the assay medium, and cells were incubated for 6 hr before reading at 544 nm excitation, 590 nm emission. EC50 values were calculated using a sigmoidal dose response curve fit. The term EC50 refers to the half maximal effective concentration and is the concentration at which a drug induces a response halfway between the baseline and maximum after some specified exposure time. It is commonly used as a measure of drug potency.
as §10

[5] = tested on: MDA-MB-231; assay: CellTiter-Glo cell proliferation assay, MDA-MB-231; format: cell-based; conditions: Homo sapiens, Breast, mutation status K-RAS
Experimental: as §1, §2, §3, §4, §5, §6
6. […]
as §7, §8, §9, §10

[6] = tested on: KPL4; assay: CellTiter-Glo cell proliferation assay, KPL4; format: cell-based; conditions: Breast, mutation status PI3K
Experimental: as §1, §2, §3, §4, §5, §6, §11, §7, §8, §12, §10

[7] = tested on: HCT116; assay: CellTiter-Glo cell proliferation assay, HCT116; format: cell-based; conditions: Homo sapiens, HCT-116, Colon, mutation status PI3K/KRAS
Experimental: as §1, §2, §3, §4, §5, §6
6. […]
as §7, §8, §9, §10

[8] = tested on: 537MEL; assay: CellTiter-Glo cell proliferation assay, 537MEL; format: cell-based; conditions: Homo sapiens, Melanoma, mutation status PTEN
Experimental: as §1, §2, §3, §4, §5, §6
6. […]
as §7, §8, §9, §10

[9] = tested on: U87MG; assay: CellTiter-Glo cell proliferation assay, U87MG; format: cell-based; conditions: Homo sapiens, U-87 MG, Glioma, mutation status PTEN
Experimental: as §1, §2, §3, §4, §5, §6
6. […]
as §7, §8, §9, §10

[10] = tested on: HCC1954; assay: CellTiter-Glo cell proliferation assay, HCC1954; format: cell-based; conditions: Homo sapiens, Breast, mutation status PI3K
Experimental: as §1, §2, §3, §4, §5, §6, §11, §7, §8, §12, §10

[11] = tested on: MCF7; assay: CellTiter-Glo cell proliferation assay, MCF7; format: cell-based; conditions: Homo sapiens, Breast, mutation status PI3K
Experimental: as §1, §2, §3, §4, §5, §6
6. […]
as §7, §8, §9, §10

[12] = tested on: PC3; assay: CellTiter-Glo cell proliferation assay, PC3; format: cell-based; conditions: Homo sapiens, PC-3, Prostate, mutation status PTEN
Experimental: as §1, §2, §3, §4, §5, §6, §11, §7, §8, §12, §10

[13] = tested on: H1703; assay: CellTiter-Glo cell proliferation assay, H1703; format: cell-based; conditions: Homo sapiens, NCI-H1703, Lung(NSCLC), mutation status WT
Experimental: as §1, §2, §3, §4, §5, §6
6. […]
as §7, §8, §9, §10

[14] = tested on: Colo205; assay: CellTiter-Glo cell proliferation assay, Colo205; format: cell-based; conditions: Homo sapiens, COLO 205, Colon, mutation status B-Raf
Experimental: as §1, §2, §3, §4, §5, §6
6. […]
as §7, §8, §9, §10

[15] = target: T1, PI3K alpha (p110 alpha) (Homo sapiens, UniProt P42336); assay: PI3K p110α (alpha) binding assay (Example 901); conditions: read-out: IC50, inhibition of PI3K alpha (binding to p110 alpha)
T1 construct: purchased Upstate Cell Signaling Solutions, Charlottesville, Va
From the text: Determination of the PI3 kinase activity of a Formula I compound is possible by a number of direct and indirect detection methods.

[16] = tested on: H2122; assay: CellTiter-Glo cell proliferation assay, H2122; format: cell-based; conditions: Homo sapiens, NCI-H2122, Lung(NSCLC), mutation status K-RAS
Experimental: as §1, §2, §3, §4, §5, §6, §11, §7, §8, §12, §10

[17] = tested on: A2058; assay: CellTiter-Glo cell proliferation assay, A2058; format: cell-based; conditions: Homo sapiens, Melanoma, mutation status PTEN
Experimental: as §1, §2, §3, §4, §5, §6
6. […]
as §7, §8, §9, §10

[18] = tested on: CAL51; assay: CellTiter-Glo cell proliferation assay, CAL51; format: cell-based; conditions: Homo sapiens, CAL-51, Breast, mutation status PI3K/PTEN
Experimental: as §1, §2, §3, §4, §5, §6
6. […]
as §7, §8, §9, §10

[19] = tested on: TOV21GX1; assay: CellTiter-Glo cell proliferation assay, TOV21GX1; format: cell-based; conditions: Ovarian, mutation status PI3K/PTEN
Experimental: as §1, §2, §3, §4, §5, §6
6. […]
as §7, §8, §9, §10

[20] = tested on: A375; assay: CellTiter-Glo cell proliferation assay, A375; format: cell-based; conditions: Homo sapiens, A-375, Melanoma, mutation status B-Raf
Experimental: as §1, §2, §3, §4, §5, §6
6. […]
as §7, §8, §9, §10

[21] = tested on: SKBR3; assay: CellTiter-Glo cell proliferation assay, SKBR3; format: cell-based; conditions: Homo sapiens, SK-BR-3, Breast, mutation status WT
Experimental: as §1, §2, §3, §4, §5, §6
6. […]
as §7, §8, §9, §10

[22] = tested on: EVSA-T; assay: CellTiter-Glo cell proliferation assay, EVSA-T; format: cell-based; conditions: Homo sapiens, Breast, mutation status PTEN
Experimental: as §1, §2, §3, §4, §5, §6, §11, §7, §8, §12, §10

[23] = tested on: LN229; assay: CellTiter-Glo cell proliferation assay, LN229; format: cell-based; conditions: Homo sapiens, LN-229, Glioma, mutation status PI3K
Experimental: as §1, §2, §3, §4, §5, §6
6. […]
as §7, §8, §9, §10

[24] = tested on: T47D; assay: CellTiter-Glo cell proliferation assay, T47D; format: cell-based; conditions: Homo sapiens, Breast, mutation status PI3K
Experimental: as §1, §2, §3, §4, §5, §6, §11, §7, §8, §12, §10

[25] = tested on: MDA-MB-361.1; assay: CellTiter-Glo cell proliferation assay, MDA-MB-361.1; format: cell-based; conditions: Breast, mutation status PI3K
Experimental: as §1, §2, §3, §4, §5, §6, §11, §7, §8, §12, §10

[26] = tested on: AU565; assay: CellTiter-Glo cell proliferation assay, AU565; format: cell-based; conditions: Homo sapiens, Breast, mutation status WT
Experimental: as §1, §2, §3, §4, §5, §6, §11, §7, §8, §12, §10

[27] = tested on: RKO; assay: CellTiter-Glo cell proliferation assay, RKO; format: cell-based; conditions: Homo sapiens, Colon, mutation status PI3K
Experimental: as §1, §2, §3, §4, §5, §6
6. […]
as §7, §8, §9, §10

T1 sequence (P42336 whole entry): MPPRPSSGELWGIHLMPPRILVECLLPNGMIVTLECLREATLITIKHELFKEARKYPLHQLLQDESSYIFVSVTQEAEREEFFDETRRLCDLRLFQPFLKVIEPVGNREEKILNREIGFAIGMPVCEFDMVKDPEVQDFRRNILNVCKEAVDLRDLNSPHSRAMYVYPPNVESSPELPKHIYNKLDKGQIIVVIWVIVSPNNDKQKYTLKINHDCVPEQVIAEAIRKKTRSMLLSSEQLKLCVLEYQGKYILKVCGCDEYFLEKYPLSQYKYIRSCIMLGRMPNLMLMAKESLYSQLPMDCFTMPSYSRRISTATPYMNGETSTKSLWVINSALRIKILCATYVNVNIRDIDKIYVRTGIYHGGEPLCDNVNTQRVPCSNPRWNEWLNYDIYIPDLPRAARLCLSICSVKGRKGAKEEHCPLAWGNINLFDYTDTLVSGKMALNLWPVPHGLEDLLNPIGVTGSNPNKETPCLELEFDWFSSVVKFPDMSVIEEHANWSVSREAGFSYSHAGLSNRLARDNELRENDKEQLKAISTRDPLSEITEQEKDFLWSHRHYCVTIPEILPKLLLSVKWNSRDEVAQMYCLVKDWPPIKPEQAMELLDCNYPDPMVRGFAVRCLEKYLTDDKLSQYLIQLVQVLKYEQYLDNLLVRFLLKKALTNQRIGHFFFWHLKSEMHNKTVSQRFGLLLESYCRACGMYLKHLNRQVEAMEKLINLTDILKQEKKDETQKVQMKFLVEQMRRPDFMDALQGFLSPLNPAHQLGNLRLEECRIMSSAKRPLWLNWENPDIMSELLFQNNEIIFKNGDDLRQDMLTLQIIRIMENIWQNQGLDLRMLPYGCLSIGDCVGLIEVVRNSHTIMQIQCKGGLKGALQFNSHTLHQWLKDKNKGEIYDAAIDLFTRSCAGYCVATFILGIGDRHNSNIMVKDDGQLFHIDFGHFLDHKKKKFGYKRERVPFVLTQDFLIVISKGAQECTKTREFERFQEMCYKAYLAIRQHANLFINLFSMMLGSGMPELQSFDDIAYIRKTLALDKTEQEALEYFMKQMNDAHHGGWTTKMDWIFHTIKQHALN
T1 sequence (P27986 whole entry partner): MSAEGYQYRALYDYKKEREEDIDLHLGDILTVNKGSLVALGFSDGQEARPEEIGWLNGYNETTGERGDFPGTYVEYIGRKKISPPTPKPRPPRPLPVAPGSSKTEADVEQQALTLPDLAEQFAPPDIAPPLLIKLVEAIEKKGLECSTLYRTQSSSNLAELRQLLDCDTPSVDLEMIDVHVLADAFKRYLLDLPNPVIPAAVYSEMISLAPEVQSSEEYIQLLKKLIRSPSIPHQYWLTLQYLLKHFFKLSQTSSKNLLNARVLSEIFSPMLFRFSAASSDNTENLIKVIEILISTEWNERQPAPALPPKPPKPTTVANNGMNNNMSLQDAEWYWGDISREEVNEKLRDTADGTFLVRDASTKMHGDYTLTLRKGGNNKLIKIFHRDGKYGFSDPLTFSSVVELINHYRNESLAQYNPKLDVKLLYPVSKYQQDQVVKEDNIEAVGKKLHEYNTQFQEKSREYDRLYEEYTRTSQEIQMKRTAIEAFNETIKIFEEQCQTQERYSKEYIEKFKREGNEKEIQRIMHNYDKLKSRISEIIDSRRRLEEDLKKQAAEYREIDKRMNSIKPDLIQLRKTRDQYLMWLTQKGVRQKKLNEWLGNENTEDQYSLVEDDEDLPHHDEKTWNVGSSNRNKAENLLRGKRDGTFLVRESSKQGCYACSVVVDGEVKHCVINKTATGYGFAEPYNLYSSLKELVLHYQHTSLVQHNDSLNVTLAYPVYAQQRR

Compound CC(C)n1ncnc1-c1cn2c(n1)-c1ccc(-c3cnn(CC(C)(C)O)c3)cc1OCC2 [compound 180, 1-(4-(2-(1-isopropyl-1H-1,2,4-triazol-5-yl)-5,6-dihydrobenzo[f]imidazo[1,2-d][1,4]oxazepin-9-yl)-1H-pyrazol-1-yl)-2-methylpropan-2-ol] has an EC50 [1] of 60 nM, an EC50 [2] of 2120 nM and an EC50 [3] of 146 nM. For the same compound, the EC50 [4] was 439 nM, the EC50 [5] was no less than 10000 nM and the EC50 [6] was 39 nM. For the same compound, the EC50 [7] was 1020 nM, the EC50 [8] was 2430 nM and the EC50 [9] was 787 nM. The EC50 [10] was 168 nM, the EC50 [11] was 121 nM and the EC50 [12] was 769 nM. For the same compound, the EC50 [13] was 225 nM, the EC50 [14] was 259 nM and the IC50 [15] was 0.18 nM. It also gave an EC50 [16] of 515 nM, an EC50 [17] of no less than 10000 nM and an EC50 [18] of 672 nM. The EC50 [19] was 3590 nM, the EC50 [20] was no less than 10000 nM and the EC50 [21] was 144 nM. The EC50 [22] was 2040 nM, the EC50 [23] was 869 nM and the EC50 [24] was 123 nM. For the same compound, the EC50 [25] was 214 nM, the EC50 [26] was 230 nM and the EC50 [27] was 2500 nM.
